From ChEMBL document CHEMBL5674866 (J Biol Chem, 2015)

Legend:
[1] = tested on: KYSE-150 cell line; test: Effect on cellular post-translational modifications on histone […] (GKGGKGLGKGGAKR) - K5 acetylated , K8 unmethylated , K12 acetylated, K16 unmethylated in human KYSE-150 cells assessed as relative abundance at 5 by mass spectrometric analysis (reference value: 3+/-1.7); format: functional; details: dose 5 µM
[2] = molecular target: Myosin-IIIa (Homo sapiens, UniProt Q8NEV4); test: Inhibition of human MYO3A by discoverX kinome scan assay
[3] = Inhibition of human ABL1 pH396P mutant by discoverX kinome scan assay
[4] = molecular target: Phosphatidylinositol 4,5-bisphosphate 3-kinase catalytic subunit beta isoform (Homo sapiens, UniProt P42338); test: Inhibition of human PIK3CB by discoverX kinome scan assay
[5] = molecular target: T1, Mitogen-activated protein kinase 13 (Homo sapiens, UniProt O15264); test: Inhibition of human p38-delta by discoverX kinome scan assay
T1 sequence (O15264 whole entry): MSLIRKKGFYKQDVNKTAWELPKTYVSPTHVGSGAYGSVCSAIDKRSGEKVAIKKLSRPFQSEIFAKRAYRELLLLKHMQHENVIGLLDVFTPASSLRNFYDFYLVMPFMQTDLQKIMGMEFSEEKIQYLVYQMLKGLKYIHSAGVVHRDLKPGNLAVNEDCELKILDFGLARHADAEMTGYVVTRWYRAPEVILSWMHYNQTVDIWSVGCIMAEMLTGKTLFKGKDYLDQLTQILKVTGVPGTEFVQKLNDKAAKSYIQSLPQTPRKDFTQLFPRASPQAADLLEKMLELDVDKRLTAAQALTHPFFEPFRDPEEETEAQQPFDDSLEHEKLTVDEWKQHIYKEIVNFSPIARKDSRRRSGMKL

[6] = Inhibition of human ABL1 pT315I mutant by discoverX kinome scan assay
[7] = molecular target: T2, Serine/threonine-protein kinase Nek2 (Homo sapiens, UniProt P51955); test: Inhibition of human NEK2 by discoverX kinome scan assay
T2 sequence (P51955 whole entry): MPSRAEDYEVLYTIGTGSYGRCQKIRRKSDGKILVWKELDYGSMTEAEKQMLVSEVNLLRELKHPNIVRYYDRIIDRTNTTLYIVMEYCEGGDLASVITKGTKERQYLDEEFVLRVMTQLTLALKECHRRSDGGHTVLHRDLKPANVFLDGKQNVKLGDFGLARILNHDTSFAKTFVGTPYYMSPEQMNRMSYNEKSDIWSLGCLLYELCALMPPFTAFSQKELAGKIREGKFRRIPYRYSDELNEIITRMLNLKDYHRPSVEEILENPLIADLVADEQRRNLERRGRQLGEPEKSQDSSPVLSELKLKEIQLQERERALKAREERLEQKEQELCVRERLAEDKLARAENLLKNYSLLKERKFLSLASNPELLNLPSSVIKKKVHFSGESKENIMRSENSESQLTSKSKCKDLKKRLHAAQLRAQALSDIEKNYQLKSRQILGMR

[8] = Inhibition of human ABL1 pM351T mutant by discoverX kinome scan assay
[9] = molecular target: Serine/threonine-protein kinase MRCK beta (Homo sapiens, UniProt Q9Y5S2); test: Inhibition of human MRCKB by discoverX kinome scan assay
[10] = molecular target: Protein kinase C eta type (Homo sapiens, UniProt P24723); test: Inhibition of human PRKCH by discoverX kinome scan assay
Chain of Protein kinase C eta type (P24723 whole entry): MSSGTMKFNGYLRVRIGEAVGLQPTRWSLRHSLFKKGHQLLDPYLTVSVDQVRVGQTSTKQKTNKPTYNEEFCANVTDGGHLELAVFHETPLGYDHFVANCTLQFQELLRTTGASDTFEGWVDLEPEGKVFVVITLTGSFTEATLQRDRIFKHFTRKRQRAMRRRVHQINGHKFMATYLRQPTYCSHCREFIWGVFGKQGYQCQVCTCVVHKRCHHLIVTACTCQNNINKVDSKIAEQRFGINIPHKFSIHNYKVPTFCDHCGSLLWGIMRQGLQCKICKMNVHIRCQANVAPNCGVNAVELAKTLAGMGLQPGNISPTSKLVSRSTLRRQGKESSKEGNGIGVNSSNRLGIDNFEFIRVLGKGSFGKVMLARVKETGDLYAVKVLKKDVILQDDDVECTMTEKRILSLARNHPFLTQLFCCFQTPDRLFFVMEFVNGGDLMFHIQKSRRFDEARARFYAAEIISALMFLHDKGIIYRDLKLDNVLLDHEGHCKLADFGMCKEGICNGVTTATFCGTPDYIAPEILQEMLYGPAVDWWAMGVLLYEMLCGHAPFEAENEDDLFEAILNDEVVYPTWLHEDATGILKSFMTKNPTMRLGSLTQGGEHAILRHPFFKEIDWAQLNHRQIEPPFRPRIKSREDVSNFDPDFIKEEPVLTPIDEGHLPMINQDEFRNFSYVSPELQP

Chain of Myosin-IIIa (Q8NEV4 whole entry): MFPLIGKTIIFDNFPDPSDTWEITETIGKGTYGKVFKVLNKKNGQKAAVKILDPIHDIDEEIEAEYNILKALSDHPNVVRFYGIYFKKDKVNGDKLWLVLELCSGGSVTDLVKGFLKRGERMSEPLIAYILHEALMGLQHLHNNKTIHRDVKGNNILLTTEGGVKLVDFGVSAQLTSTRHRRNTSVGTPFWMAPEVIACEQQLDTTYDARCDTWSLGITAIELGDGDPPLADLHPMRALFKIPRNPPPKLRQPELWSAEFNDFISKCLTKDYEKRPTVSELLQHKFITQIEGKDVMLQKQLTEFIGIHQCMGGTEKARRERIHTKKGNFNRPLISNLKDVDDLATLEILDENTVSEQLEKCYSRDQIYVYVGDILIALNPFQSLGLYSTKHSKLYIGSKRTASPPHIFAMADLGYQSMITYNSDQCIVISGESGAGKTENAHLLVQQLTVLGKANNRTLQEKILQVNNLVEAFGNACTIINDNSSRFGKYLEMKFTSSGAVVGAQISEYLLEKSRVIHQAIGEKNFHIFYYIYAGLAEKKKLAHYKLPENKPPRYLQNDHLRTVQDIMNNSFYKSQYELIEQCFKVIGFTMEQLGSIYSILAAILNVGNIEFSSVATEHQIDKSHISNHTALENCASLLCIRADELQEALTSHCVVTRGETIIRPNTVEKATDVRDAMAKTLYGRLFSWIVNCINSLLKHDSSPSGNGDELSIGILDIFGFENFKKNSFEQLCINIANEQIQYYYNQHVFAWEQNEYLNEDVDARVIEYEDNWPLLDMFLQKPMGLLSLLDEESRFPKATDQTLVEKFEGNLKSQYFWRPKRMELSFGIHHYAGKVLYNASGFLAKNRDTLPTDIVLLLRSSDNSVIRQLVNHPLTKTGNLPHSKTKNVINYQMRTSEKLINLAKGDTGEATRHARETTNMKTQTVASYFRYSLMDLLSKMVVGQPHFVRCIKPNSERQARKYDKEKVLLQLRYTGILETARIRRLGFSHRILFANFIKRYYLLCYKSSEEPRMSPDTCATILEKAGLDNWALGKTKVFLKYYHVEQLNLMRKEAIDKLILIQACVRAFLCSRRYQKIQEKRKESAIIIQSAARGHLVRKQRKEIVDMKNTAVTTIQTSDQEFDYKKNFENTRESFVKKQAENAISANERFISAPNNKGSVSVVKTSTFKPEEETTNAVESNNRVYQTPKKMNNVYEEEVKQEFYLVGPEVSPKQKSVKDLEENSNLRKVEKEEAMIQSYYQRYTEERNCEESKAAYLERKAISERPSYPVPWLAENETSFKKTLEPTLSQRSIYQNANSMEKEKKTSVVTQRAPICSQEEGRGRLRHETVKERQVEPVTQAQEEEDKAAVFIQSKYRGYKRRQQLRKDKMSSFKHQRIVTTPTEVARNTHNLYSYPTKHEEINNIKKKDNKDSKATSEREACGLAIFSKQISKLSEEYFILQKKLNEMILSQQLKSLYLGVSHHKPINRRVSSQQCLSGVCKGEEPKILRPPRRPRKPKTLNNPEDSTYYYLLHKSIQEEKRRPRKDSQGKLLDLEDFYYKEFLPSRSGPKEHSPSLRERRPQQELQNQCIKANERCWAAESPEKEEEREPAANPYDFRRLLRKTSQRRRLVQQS
Chain of Serine/threonine-protein kinase MRCK beta (Q9Y5S2 whole entry): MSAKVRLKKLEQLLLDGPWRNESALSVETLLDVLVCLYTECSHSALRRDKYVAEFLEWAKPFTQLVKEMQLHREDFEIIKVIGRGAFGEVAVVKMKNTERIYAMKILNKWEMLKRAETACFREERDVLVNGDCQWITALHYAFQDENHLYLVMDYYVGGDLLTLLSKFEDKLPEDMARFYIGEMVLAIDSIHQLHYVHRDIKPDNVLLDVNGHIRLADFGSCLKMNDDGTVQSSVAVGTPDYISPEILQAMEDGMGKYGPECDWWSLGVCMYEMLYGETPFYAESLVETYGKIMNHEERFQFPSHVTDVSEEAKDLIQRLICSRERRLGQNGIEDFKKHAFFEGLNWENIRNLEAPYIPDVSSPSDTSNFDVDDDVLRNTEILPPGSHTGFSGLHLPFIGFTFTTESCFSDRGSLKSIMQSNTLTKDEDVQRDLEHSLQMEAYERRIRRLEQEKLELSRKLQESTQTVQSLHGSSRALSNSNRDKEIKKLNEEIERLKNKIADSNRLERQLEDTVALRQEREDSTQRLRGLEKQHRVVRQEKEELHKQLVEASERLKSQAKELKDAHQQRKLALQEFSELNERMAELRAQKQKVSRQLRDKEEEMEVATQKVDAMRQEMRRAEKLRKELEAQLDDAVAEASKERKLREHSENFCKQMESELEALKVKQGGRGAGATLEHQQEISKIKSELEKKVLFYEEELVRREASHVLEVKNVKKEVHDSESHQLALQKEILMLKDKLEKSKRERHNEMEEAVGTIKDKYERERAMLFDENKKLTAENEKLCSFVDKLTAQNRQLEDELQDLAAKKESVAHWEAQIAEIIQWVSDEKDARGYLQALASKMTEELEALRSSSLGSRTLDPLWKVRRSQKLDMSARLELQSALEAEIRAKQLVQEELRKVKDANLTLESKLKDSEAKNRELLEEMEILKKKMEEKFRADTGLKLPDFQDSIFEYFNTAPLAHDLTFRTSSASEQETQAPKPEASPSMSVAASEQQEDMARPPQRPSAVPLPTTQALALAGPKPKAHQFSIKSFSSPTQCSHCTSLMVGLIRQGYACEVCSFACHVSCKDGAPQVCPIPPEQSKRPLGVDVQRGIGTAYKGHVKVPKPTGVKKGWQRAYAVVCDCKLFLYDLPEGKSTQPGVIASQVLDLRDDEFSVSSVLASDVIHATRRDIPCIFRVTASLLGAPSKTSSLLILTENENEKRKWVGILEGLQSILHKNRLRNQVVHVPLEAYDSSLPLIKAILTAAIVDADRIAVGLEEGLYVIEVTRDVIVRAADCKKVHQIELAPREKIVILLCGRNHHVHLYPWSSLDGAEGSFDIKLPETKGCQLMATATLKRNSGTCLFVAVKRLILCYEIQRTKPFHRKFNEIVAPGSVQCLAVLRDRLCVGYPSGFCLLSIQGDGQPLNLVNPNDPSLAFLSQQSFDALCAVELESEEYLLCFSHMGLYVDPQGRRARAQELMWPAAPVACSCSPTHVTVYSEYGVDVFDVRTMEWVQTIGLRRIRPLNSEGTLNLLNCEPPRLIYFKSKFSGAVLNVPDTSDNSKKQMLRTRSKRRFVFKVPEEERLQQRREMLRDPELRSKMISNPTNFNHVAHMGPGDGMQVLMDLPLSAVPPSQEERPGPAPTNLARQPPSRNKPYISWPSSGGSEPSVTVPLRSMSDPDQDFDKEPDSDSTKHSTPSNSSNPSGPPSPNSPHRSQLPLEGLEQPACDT
Chain of Phosphatidylinositol 4,5-bisphosphate 3-kinase catalytic subunit beta isoform (P42338 whole entry, canonical isoform): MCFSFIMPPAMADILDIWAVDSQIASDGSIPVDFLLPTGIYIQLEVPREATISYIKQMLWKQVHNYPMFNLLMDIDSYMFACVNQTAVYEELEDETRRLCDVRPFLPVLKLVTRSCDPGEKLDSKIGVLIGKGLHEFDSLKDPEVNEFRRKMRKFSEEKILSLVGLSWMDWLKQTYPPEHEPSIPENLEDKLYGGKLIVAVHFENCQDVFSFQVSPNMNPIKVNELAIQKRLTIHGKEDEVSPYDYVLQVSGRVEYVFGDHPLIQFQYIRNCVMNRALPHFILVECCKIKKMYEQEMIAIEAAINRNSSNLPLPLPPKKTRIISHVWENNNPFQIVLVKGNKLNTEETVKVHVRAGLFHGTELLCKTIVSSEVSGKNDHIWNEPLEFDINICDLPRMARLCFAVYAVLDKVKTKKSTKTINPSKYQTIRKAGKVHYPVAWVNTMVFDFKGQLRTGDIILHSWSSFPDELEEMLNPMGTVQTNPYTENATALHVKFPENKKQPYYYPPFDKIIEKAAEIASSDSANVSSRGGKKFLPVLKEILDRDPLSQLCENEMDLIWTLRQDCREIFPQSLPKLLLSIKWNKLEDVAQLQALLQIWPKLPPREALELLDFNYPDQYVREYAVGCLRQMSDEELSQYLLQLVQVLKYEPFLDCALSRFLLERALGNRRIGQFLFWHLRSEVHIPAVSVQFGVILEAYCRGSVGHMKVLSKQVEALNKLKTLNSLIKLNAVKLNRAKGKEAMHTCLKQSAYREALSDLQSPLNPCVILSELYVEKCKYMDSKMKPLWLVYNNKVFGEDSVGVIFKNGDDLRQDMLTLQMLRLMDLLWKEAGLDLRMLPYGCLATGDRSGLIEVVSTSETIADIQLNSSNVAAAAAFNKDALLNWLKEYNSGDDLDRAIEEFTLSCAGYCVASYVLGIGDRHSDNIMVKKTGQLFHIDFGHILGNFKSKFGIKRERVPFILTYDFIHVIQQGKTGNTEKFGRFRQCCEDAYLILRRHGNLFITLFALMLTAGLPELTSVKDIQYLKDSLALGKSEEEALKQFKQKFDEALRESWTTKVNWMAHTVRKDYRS

Cc1cn(CCN2CCN(c3ccccc3-c3cc(C#N)cc(C(=O)NCCCN4CCCC4)c3)CC2)c2ccccc12
Activity [1]: 1.6 | IC50 [2]: > 20 µM | IC50 [3]: > 20 µM | IC50 [4]: > 20 µM | IC50 [5]: > 20 µM | IC50 [6]: > 20 µM | IC50 [7]: > 20 µM | IC50 [8]: > 20 µM | IC50 [9]: > 20 µM | IC50 [10]: > 20 µM
